This is an account of results in patent US7776790B2 (Platte Chemical Co., priority 2001, dated 2010).

Series [1] can be described thus: pKa of the acid herbicide in the formulation, measured. The class given is physicochemical. The following applies: 2,4-D acid in PCC-1133; glyphosate acid in PCC-1168.
The conditions of series [2]: per approximately 100 grams of an aqueous solution (one weight percent); depending on temperature and pH; cited from earlier work.

One may read the pKa as the negative logarithm of the acid dissociation constant. A lower pKa goes with a group that gives up its proton readily. `O=C(O)COc1ccc(Cl)cc1Cl` [2,4-D acid, 2,4-dichlorophenoxy acetic acid]: the pKa in series [1] came out at 2.87. Regarding `O=C(O)CNCP(=O)(O)O` [glyphosate acid, N-(phosphonomethyl)glycine], the “solubility in water or acidic water” value in series [2] is given as “approximately 1 gram”. The compound further registered a pKa in series [1] of approximately 2.5.
